Like-named read-outs stand apart in the source and are kept apart here.
Experiments:
[1] = Rat PK: plasma prodrug concentration after intravenous (IV) dosing of xanomeline prodrugs at 1 mg/kg (Example A-6); type: in vivo, male Sprague-Dawley (SD) rats; details: male, Sprague-Dawley, IV 1 mg/kg of xanomeline; for concentration at 0.5 h: 0.500 h; for concentration at 0.75 h: 0.750 h
Procedure: (§1) • Step 1: A stock solution of the compound(s) were prepared to 1 mg/ml in DMSO • Step 2: A 10,000 ng/mL matched matrix standard was prepared using the stock solution(s) • Step 3: Calibration standards in matched matrix were prepared between 10,000 ng/ml and 0.5 ng/mL using serial dilution • Step 4: QC samples were prepared in matched matrix at 4000, 800, 400, 40 and 10 ng/mL
(§2) • Step 1: Add 10 μL of the standards, QCs and samples to a 96-well plate (extraction plate) • Step 2: To each standard, QC and test sample, add 100 μL of ISZ • Step 3: Sonicate for 2 min then mix the plate for approximately 2 min at 1200 rpm on a plate shaker • Step 4: Centrifuge the plate at 3000 rpm for 5 min • Step 5: Add 50 μL 0.1% formic acid in UP H2O to wells of a new 96-well plate • Step 6: Transfer 50 μL extracted sample to relevant position in second 96-well plate • Step 7: Mix at 1200 rpm for 2 min • Step 8: Heat seal and analyse on the LC-MS/MS system • Instrument: Xevo TQ-D with CTC Autosampler
(§3) Samples were sent for method optimization and measurement of prodrug via unique calibration lines and following acceptance QC's. Dose formulation concentrations were also measured, and PK parameters were determined (Cmax (ng/mL), Tmax (hr), Cl (ml/min/kg), Vdss (L/kg), t½ (hr), AUC0-t (ng/mL*hr), AUC0-inf (ng/mL*hr), MRT (hr), Bioavailability (% F) where warranted) using WinNon Lin software. Data (including bioanalytical results and assay performance) were reported in a tabulated format and QC'd.
Compound was dissolved in DMSO:HPCD (20% w/v in water) [10:90] 0.5 mg API/mL to provide doses of 1 mg/kg when administered IV in a 2 mL/kg dosing volume.
(§4) The pharmacokinetic properties of the synthesized xanomeline prodrugs after intravenous administration in a rat model were assessed. The concentration of prodrug was measured in each rat at various sampling timepoints after intravenous administration of the synthesized xanomeline prodrugs to rats.
Dose formulations were made at equivalent concentrations of active compound (xanomeline) adjusted for molecular weight of the compounds. The synthesized xanomeline prodrugs were dosed at 1 mg/kg intravenous (IV) nominal dose. Nominal doses were used in PK parameter determinations.

[2] = Rat PK: plasma prodrug concentration after intramuscular (IM) dosing of xanomeline prodrugs at 5 mg/kg (Example A-4); type: in vivo, male Sprague-Dawley (SD) rats; details: male, Sprague-Dawley, IM 5 mg/kg of xanomeline, Mean
Procedure: as §1, §2, §3
Formulation for IM administration: All compounds were formulated as solutions or fine suspensions in saline at 12.5 mg API/mL. This provided doses of 5 mg/kg (equivalent of xanomeline) when given to a 250 g rat in a 100 μL dosing volume.
as §4, with “intramuscular” for “intravenous”
Dose formulations were made at equivalent concentrations of active compound (xanomeline) adjusted for molecular weight of the compounds. The synthesized xanomeline prodrugs were dosed at 5 mg/kg intramuscular (IM) nominal dose. Nominal doses were used in PK parameter determinations.

[3] = iv, 1 mg/kg, Mean, read-out: Prodrug Plasma Concentrations Following Intravenous Dosing
[4] = iv, 1 mg/kg, individual animals, read-out: Prodrug Plasma Concentrations Following Intravenous Dosing

SMILES: CCCCCCOc1nsnc1C1=CCC[N+](C)(C(CC)OC(=O)C(C)(C)C)C1 (stereo not drawn) [Compound 352]
- Tmax ([1]; analyte prodrug, individual animals): 15 min
- concentration at 0.25 h ([1]; iv, 1 mg/kg, 0.250 h, Mean, read-out: Prodrug Plasma Concentrations Following Intravenous Dosing): 33.2 ng/mL
- concentration at 0.5 h [1, 3]: 12.9 ng/mL
- concentration at 0.5 h [1, 4]: 10.3 ng/mL
- concentration at 0.75 h [1, 3]: 6.01 ng/mL
- concentration at 0.75 h [1, 4]: 6.01 ng/mL
- concentration at 1 h [1, 3]: 5.37 ng/mL
- concentration at 1 h [1, 4]: 5.58 ng/mL
- Cmax ([1]; iv, 1 mg/kg, analyte prodrug, Mean): 33.2 ng/mL
- AUC(0-inf) ([1]; iv, 1 mg/kg, analyte prodrug, Mean, read-out: Prodrug AUCINF_obs): 44.4 ng·h/mL
- AUC(0-t) ([1]; iv, 1 mg/kg, analyte prodrug, Mean, read-out: Prodrug AUClast): 42.4 ng·h/mL
- Tmax ([2]; analyte prodrug): 30 min
- concentration at 2 h ([2]; intramuscular, 5 mg/kg, 2.00 h, read-out: Prodrug Plasma Concentrations Following Intramuscular Dosing): 71.3 ng/mL
- concentration at 4 h ([2]; intramuscular, 5 mg/kg, 4.00 h, read-out: Prodrug Plasma Concentrations Following Intramuscular Dosing): 33.4 ng/mL
- concentration at 8 h ([2]; intramuscular, 5 mg/kg, 8.00 h, read-out: Prodrug Plasma Concentrations Following Intramuscular Dosing): 18.6 ng/mL

Source: US20240368149A1, “ANALOGS OF XANOMELINE” (Terran Biosciences Inc., priority 2023, published 2024)
